# US20050014706A1, “Method of treating tuberculosis” (priority 2003, published 2005)
# Read-outs that look alike come from different tables or passages of the source.
# Columns and labels:
# M. tuberculosis H37Rv = assay: MIC vs. M. tuberculosis H37Rv, microplate Alamar Blue assay (MABA); format: cell-based; details: for MIC / activity vs. M. tuberculosis in words: in vitro
# [1] = test system: J774.1 macrophage cell line; assay: Cytotoxicity against J774.1 macrophage cell line; format: cell-based, murine; details: J774 cells, read-out: J774 IC50 (toxicity)
# VERO cells = assay: Cytotoxicity against VERO cells (MTS, 72 hours); details: for IC50: read-out: Vero IC50 (toxicity)
# M. tuberculosis Erdman = format: in vivo, BALB/c mice; details: […]; 100 and 200 mg/kg qd (RU60887 100 mg/kg only)
# [2] = Table 3, parallel-synthesis carbazate library products
# [3] = Table 1a, 11,12-carbamate derivatives, read-out: Anti-TB Activity MIC
# [4] = Table 2a, 11,12-diols, read-out: Anti-TB Activity MIC
molecule,measurement,setting,value
CC[C@H]1OC(=O)[C@H](C)[C@@H](O[C@H]2CC(C)(OC)[C@@H](O)[C@H](C)O2)[C@H](C)[C@@H](O[C@@H]2O[C@H](C)C[C@H](N(C)C)[C@H]2O)[C@](C)(OC)C[C@@H](C)C(=O)[C@H](C)[C@H]2N(NCc3nc4ccccc4s3)C(=O)O[C@]12C (stereo partly shown) [F7′],MIC,M. tuberculosis H37Rv; [2],16 µM
CC[C@H]1OC(=O)[C@H](C)[C@@H](O[C@H]2CC(C)(OC)[C@@H](O)[C@H](C)O2)[C@H](C)[C@@H](O[C@@H]2O[C@H](C)C[C@H](N(C)C)[C@H]2O)[C@](C)(OC)C[C@@H](C)C(=O)[C@H](C)[C@H]2N(NCc3csc(-c4ccccc4)n3)C(=O)O[C@]12C (stereo partly shown) [F9′],MIC,M. tuberculosis H37Rv; [2],12.6 µM
CC[C@H]1OC(=O)[C@H](C)[C@@H](O[C@H]2CC(C)(OC)[C@@H](O)[C@H](C)O2)[C@H](C)[C@@H](O[C@@H]2O[C@H](C)C[C@H](N(C)C)[C@H]2O)[C@](C)(OC)C[C@@H](C)C(=O)[C@H](C)[C@H]2N(NCc3cc(Br)cs3)C(=O)O[C@]12C (stereo partly shown) [F11′],MIC,M. tuberculosis H37Rv; [2],12.7 µM
CC[C@H]1OC(=O)[C@H](C)[C@@H](O[C@H]2CC(C)(OC)[C@@H](O)[C@H](C)O2)[C@H](C)[C@@H](O[C@@H]2O[C@H](C)C[C@H](N(C)C)[C@H]2O)[C@](C)(OC)C[C@@H](C)C(=O)[C@H](C)[C@H]2N(NCc3cc4ccccc4s3)C(=O)O[C@]12C (stereo partly shown) [G2′],MIC,M. tuberculosis H37Rv; [2],11 µM
CC[C@H]1OC(=O)[C@H](C)[C@@H](O[C@H]2CC(C)(OC)[C@@H](O)[C@H](C)O2)[C@H](C)[C@@H](O[C@@H]2O[C@H](C)C[C@H](N(C)C)[C@H]2O)[C@](C)(OC)C[C@@H](C)C(=O)[C@H](C)[C@H]2N(NCc3sccc3Oc3ccccc3)C(=O)O[C@]12C (stereo partly shown) [G4′],MIC,M. tuberculosis H37Rv; [2],13 µM
CC[C@H]1OC(=O)[C@H](C)[C@@H](O[C@H]2CC(C)(OC)[C@@H](O)[C@H](C)O2)[C@H](C)[C@@H](O[C@@H]2O[C@H](C)C[C@H](N(C)C)[C@H]2O)[C@](C)(OC)C[C@@H](C)C(=O)[C@H](C)[C@H]2N(NCC3=Cc4ccccc4OC3)C(=O)O[C@]12C (stereo partly shown) [G6′],MIC,M. tuberculosis H37Rv; [2],11 µM
CC[C@H]1OC(=O)[C@H](C)[C@@H](O[C@H]2CC(C)(OC)[C@@H](O)[C@H](C)O2)[C@H](C)[C@@H](O[C@@H]2O[C@H](C)C[C@H](N(C)C)[C@H]2O)[C@](C)(OC)C[C@@H](C)C(=O)[C@H](C)[C@H]2N(NCc3cc(Cl)cc(Br)c3O)C(=O)O[C@]12C (stereo partly shown) [G8′],MIC,M. tuberculosis H37Rv; [2],14 µM
CC[C@H]1OC(=O)[C@H](C)[C@@H](O[C@H]2CC(C)(OC)[C@@H](O)[C@H](C)O2)[C@H](C)[C@@H](O[C@@H]2O[C@H](C)C[C@H](N(C)C)[C@H]2O)[C@](C)(OC)C[C@@H](C)C(=O)[C@H](C)[C@H]2N(NCC3CSN=N3)C(=O)O[C@]12C (stereo partly shown) [G10′],MIC,M. tuberculosis H37Rv; [2],>16 µM
CC[C@H]1OC(=O)[C@H](C)[C@@H](O[C@H]2CC(C)(OC)[C@@H](O)[C@H](C)O2)[C@H](C)[C@@H](O[C@@H]2O[C@H](C)C[C@H](N(C)C)[C@H]2O)[C@](C)(OC)C[C@@H](C)C(=O)[C@H](C)[C@H]2N(NCc3ccc(N4CCC(c5ccccc5OC)CC4)c([N+](=O)[O-])c3)C(=O)O[C@]12C (stereo partly shown) [G12′],MIC,M. tuberculosis H37Rv; [2],19 µM
CC[C@H]1OC(=O)[C@H](C)[C@@H](O[C@H]2CC(C)(OC)[C@@H](O)[C@H](C)O2)[C@H](C)[C@@H](O[C@@H]2O[C@H](C)C[C@H](N(C)C)[C@H]2O)[C@](C)(OC)C[C@@H](C)C(=O)[C@H](C)[C@H]2N(NCc3c(Cl)cccc3Cl)C(=O)O[C@]12C (stereo partly shown) [H1′],MIC,M. tuberculosis H37Rv; [2],11 µM
CC[C@H]1OC(=O)[C@H](C)[C@@H](O[C@H]2CC(C)(OC)[C@@H](O)[C@H](C)O2)[C@H](C)[C@@H](O[C@@H]2O[C@H](C)C[C@H](N(C)C)[C@H]2O)[C@](C)(OC)C[C@@H](C)C(=O)[C@H](C)[C@H]2N(NCc3cccc4nsnc34)C(=O)O[C@]12C (stereo partly shown) [H3′],MIC,M. tuberculosis H37Rv; [2],>22 µM
CC[C@H]1OC(=O)[C@H](C)[C@@H](O[C@H]2CC(C)(OC)[C@@H](O)[C@H](C)O2)[C@H](C)[C@@H](O[C@@H]2O[C@H](C)C[C@H](N(C)C)[C@H]2O)[C@](C)(OC)C[C@@H](C)C(=O)[C@H](C)[C@H]2N(NCc3ccc4c(c3)nnn4C)C(=O)O[C@]12C (stereo partly shown) [H7′],MIC,M. tuberculosis H37Rv; [2],>22 µM
CCC1OC(=O)C(C)C(OC2CC(C)(OC)C(O)C(C)O2)C(C)C(OC2OC(C)CC(N(C)C)C2O)C(C)(OC)CC(C)C(=O)C(C)C2N(N=CC3=C(Cl)c4cc(F)ccc4OC3)C(=O)OC12C (stereo not shown) [H9′],MIC,M. tuberculosis H37Rv; [2],?3 μM
CC[C@H]1OC(=O)[C@H](C)[C@@H](O[C@H]2CC(C)(OC)[C@@H](O)[C@H](C)O2)[C@H](C)[C@@H](O[C@@H]2O[C@H](C)C[C@H](N(C)C)[C@H]2O)[C@](C)(OC)C[C@@H](C)C(=O)[C@H](C)[C@H]2N(NCc3c(Sc4ccc(Cl)cc4)nc4sccn34)C(=O)O[C@]12C (stereo partly shown) [H11′],MIC,M. tuberculosis H37Rv; [2],35.4 µM
"CO[C@H]1/C=C/O[C@@]2(C)Oc3c(C)c(O)c4c(O)c(c(/C=N/N5CCN(C)CC5)c(O)c4c3C2=O)NC(=O)/C(C)=C\C=C\[C@H](C)[C@H](O)[C@@H](C)[C@@H](O)[C@@H](C)[C@H](OC(C)=O)[C@@H]1C [RMP, Rifampin, reference compound]",MIC,"M. tuberculosis H37Rv; Mycobacterium tuberculosis, H37RV, Table 1a, 11,12-carbamate derivatives, read-out: Anti-TB Activity MIC",0.076 µM
same,IC50,"[1]; Mus musculus, J774.1, Table 1a",32.7 µM
same,IC50,"VERO cells; Chlorocebus sabaeus, Vero",46.7 µM
CCC1OC(=O)C(C)(F)C(=O)C(C)C(OC2OC(C)CC(N(C)C)C2O)C(C)(OC)CC(C)C(=O)C(C)C2N(NCCCc3ccnc4ccccc34)C(=O)OC12C (stereo not shown) [RU3562],MIC,M. tuberculosis H37Rv; [3],16 µM
CC[C@H]1OC(=O)[C@H](C)[C@@H](O[C@H]2C[C@@](C)(OC)[C@@H](O)[C@H](C)O2)[C@H](C)[C@@H](O[C@@H]2O[C@H](C)C[C@H](N(C)C)[C@H]2O)[C@](C)(O)C[C@@H](C)/C(=N\OCOCc2ccccc2)[C@H](C)[C@@H](O)[C@]1(C)O [RU29558],MIC,M. tuberculosis H37Rv; [4],7 µM
same,IC50,"VERO cells; Table 2a, Vero cells",28.2 µM
CC[C@H]1OC(=O)[C@H](C)C(=O)[C@H](C)[C@@H](O[C@@H]2O[C@H](C)C[C@H](N(C)C)[C@H]2O)[C@](C)(OC)C[C@@H](C)C(=NOCOCCOC)[C@H](C)[C@@H](O)[C@]1(C)O [RU54615],MIC,M. tuberculosis H37Rv; [4],>128 µM
CC[C@H]1OC(=O)[C@H](C)C(=O)[C@H](C)[C@@H](O[C@@H]2O[C@H](C)C[C@H](N(C)C)[C@H]2O)[C@](C)(OC)C[C@@H](C)C(=O)[C@H](C)[C@@H](O)[C@]1(C)O [RU56006],MIC,M. tuberculosis H37Rv; [4],>128 µM
CCCCCCCCCCN1CCCC(O/N=C2\[C@H](C)C[C@@](C)(OC)[C@H](O[C@@H]3O[C@H](C)C[C@H](N(C)C)[C@H]3O)[C@@H](C)C(=O)[C@@H](C)C(=O)O[C@H](CC)[C@@](C)(O)[C@H](O)[C@H]2C)C1 (stereo partly shown) [RU60887],MIC,"M. tuberculosis H37Rv; Mycobacterium tuberculosis, H37RV, Table 2a, 11,12-diols, read-out: Anti-TB Activity MIC",0.125 µM
same,MIC,"M. tuberculosis H37Rv; Mycobacterium tuberculosis, H37RV, read-out: minimum inhibitory concentration (MIC) against M. tuberculosis",0.12 µM
same,MIC / activity vs. M. tuberculosis in words,M. tuberculosis H37Rv,very low
same,IC50,"[1]; Mus musculus, J774.1, Table 2a",4.7 µM
same,activity against M. tuberculosis in the acute phase of infection,M. tuberculosis Erdman,less activity
same,IC50,"VERO cells; Chlorocebus sabaeus, Vero",27.6 µM
same,toxicity / cytotoxicity in words,VERO cells; in vitro study,comparable to clarithromycin
CC[C@H]1OC(=O)[C@H](C)C(=O)[C@H](C)[C@@H](O[C@@H]2O[C@H](C)C[C@H](N(C)C)[C@H]2O)[C@](C)(OC)C[C@@H](C)C(=O)[C@H](C)[C@H]2N(CCCCn3ccnc3)C(=O)O[C@]12C [RU61205],MIC,M. tuberculosis H37Rv; [3],112 µM
CC[C@H]1OC(=O)[C@H](C)C(=O)[C@H](C)[C@@H](O[C@@H]2O[C@H](C)C[C@H](N(C)C)[C@H]2O)[C@](C)(OC)C[C@@H](C)C(=NOC2CCCN(C/C=C/c3ccc(-c4ccccc4)cc3)C2)[C@H](C)[C@@H](O)[C@]1(C)O (stereo partly shown) [RU61804],MIC,M. tuberculosis H37Rv; [4],0.5 µM
same,IC50,[1]; Table 2a,3.9 µM
same,IC50,"VERO cells; Table 2a, Vero cells",9.12 µM
CC[C@H]1OC(=O)[C@H](C)[C@@H](O[C@H]2CC(C)(OC)[C@@H](O)[C@H](C)O2)[C@H](C)[C@@H](O[C@@H]2O[C@H](C)C[C@H](N(C)C)[C@H]2O)[C@](C)(OC)C[C@@H](C)C(=O)[C@H](C)[C@H]2N(CCCCc3ccnc4ccccc34)C(=O)O[C@]12C (stereo partly shown) [RU66080],MIC,M. tuberculosis H37Rv; [3],0.44 µM
same,IC50,[1]; Table 1a,4.95 µM
same,IC50,"VERO cells; Table 1a, Vero cells",8.1 µM
CC[C@H]1OC(=O)[C@H](C)C(=O)[C@H](C)[C@@H](O[C@@H]2O[C@H](C)C[C@H](N(C)C)[C@H]2O)[C@](C)(OC)C[C@@H](C)C(=O)[C@H](C)[C@H]2N(CCCn3cnc4c3c(=O)n(C)c(=O)n4C)C(=O)O[C@]12C [RU66740],MIC,M. tuberculosis H37Rv; [3],>128 µM
CC[C@H]1OC(=O)[C@H](C)C(=O)[C@H](C)[C@@H](O[C@@H]2O[C@H](C)C[C@H](N(C)C)[C@H]2O)[C@](C)(OC)C[C@@H](C)C(=O)[C@H](C)[C@H]2N(NCCc3ccccc3)C(=O)O[C@]12C [RU70645],MIC,M. tuberculosis H37Rv; [3],14 µM
"CC[C@H]1OC(=O)[C@H](C)C(=O)[C@H](C)[C@@H](O[C@@H]2O[C@H](C)C[C@H](N(C)C)[C@H]2O)[C@](C)(OC)C[C@@H](C)C(=O)[C@H](C)[C@H]2N(CCCCn3cnc(-c4cccnc4)c3)C(=O)O[C@]12C [Telithromycin, reference compound]",MIC,M. tuberculosis H37Rv; [3],48 µM
same,MIC / activity vs. M. tuberculosis in words,M. tuberculosis H37Rv,even less active than clarithromycin
"cethromycin [ABT773, reference compound]",MIC against M. tuberculosis,M. tuberculosis H37Rv,3 µM
same,MIC,M. tuberculosis H37Rv; [3],3 µM
same,IC50,"VERO cells; Table 1a, Vero cells",> 105 µM
